According to patent US10226413B2, “Solution solubilization composition of insoluble material and method for solubilizing insoluble material using same” (Damy Chemical Co., Ltd., priority 2013, dated 2019):

Procedure: The turbidity of each lotion was measured using a spectrophotometer at 620 nm. A high turbidity of a liquid indicates cloudiness of the liquid and a low turbidity of a liquid indicates high transparency of the liquid. The turbidity (optical density) of the lotion was measured in the range of 0.01-1.0.
The amount of light passing through each solution was measured. The transmittance (T, %) of the solution for light was calculated as follows. First, the measured absorbance was substituted into -log t=A (absorbance, O.D). Since t is always not greater than 1, the transmittance (T) was calculated and expressed in percentage by T (%)=t×100. The transmittance is between 1 and 100%. The higher the transmittance, the higher the transparency. The transmittance of purified water was defined as 100%.

Structure (SMILES)	solubilization in water by the composition (turbidity and transmittance)
C[C@@H]1O[C@@H](OC[C@H]2O[C@@H](Oc3c(-c4ccc(O)c(O)c4)oc4cc(O)cc(O)c4c3=O)[C@H](O)[C@@H](O)[C@@H]2O)[C@H](O)[C@H](O)[C@H]1O [rutin]	can solubilize
COC1=C(OC)C(=O)C(C/C=C(\C)CC/C=C(\C)CC/C=C(\C)CC/C=C(\C)CC/C=C(\C)CC/C=C(\C)CC/C=C(\C)CC/C=C(\C)CC/C=C(\C)CCC=C(C)C)=C(C)C1=O [ubiquinone]	can solubilize
